This note sets out measurements from patent US10689378B2, “Triazolopyridine compounds and uses thereof” (Novartis AG, priority 2016, dated 2020).

SMILES strings stand for the structures. Where two headings read alike, the source gives them in different places.

For one assay, the target named is T1, EED (1-441)-His protein (Homo sapiens, UniProt O75530).
T1 construct: 30 nM EED (1-441)-His protein
Briefly: EED-H3K27Me3 peptide competition binding assay by AlphaScreen. As for the experimental part: EED-H3K27Me3 Peptide Competition Binding Assay by AlphaScreen (α-Screen)
To assess the compounds' potency in the EED-H3K27Me3 competition binding assay, compounds were serially diluted 3-fold in DMSO to obtain a total of twelve concentrations. Then compounds at each concentration (75 nL of each) were transferred by Mosquito into a 384-well Perkin Elmer ProxiPlate 384 plus plates. 8 uL of solutions containing 30 nM EED (1-441)-His protein and 15 nM biotin-H3K27Me3 (19-33) peptide in the buffer (25 mM HEPES, pH 8, 0.02% Tween-20, 0.5% BSA) were added to the wells and then incubated with compound for 20 min. AlphaScreen detection beads mix was prepared immediately before use by mixing nickel chelate acceptor beads and streptavidin donor beads in a 1:1 ratio (Perkin Elmer, Product No. 6760619C/M/R) into the buffer described above. Then 4 μL of detection beads mix was added to the plate and incubate in the dark at the rt for 1 h. The final concentration of donor and acceptor beads was 10 μg/mL for each. Plates were read on EnVision (PerkinElmer) using the AlphaScreen setting adapted for optimal signal detection with a 615 nm filter, after sample excitation at 680 nm. The emission signal at 615 nm was used to quantify compounds inhibition. AlphaScreen signals were normalized based on the reading coming from the positive (maximum signal control) and negative controls (minimum signal control) to give percentage of activities left. The data were then fit to a dose response equation using the program Helios (Novartis) to get the IC50 values. Helios is a Novartis in-house assay data analysis software using the methods described by Normolle, D. P., Statistics in Medicine, 12:2025-2042 (1993); Formenko, I. et al, Computer Methods and Programs in Biomedicine, 82, 31-37 (2006); Sebaugh, J. L., Pharmaceutical Statistics, 10:128-134 (2011); Kelly, C. et al., Biometrics, 46(4):1071-1085 (1990); and Kahm, M. et al., Journal of Statistical Software, 33 (7): (2010) (grofit: Fitting Biological Growth Curves with R, pages 1-21, available at http://www.jstatsoft.org/).

Assay [1] deals with H3K27 methylation in G401 cell. As to the kind of experiment: ELISA (H3K27 methylation) assay in G401 cells. As to conditions: Homo sapiens, G-401, read-out: (c) IC50, ELISA Qualified. The class given is cell-based, human. As for the experimental part: Compounds of the present invention were assessed for their ability to inhibit PRC2 activity in a pentameric complex of EZH2, SUZ12, EED, Rbap48 and AEBP in biochemical assays. The ability of compounds of the present invention to inhibit cellular activity of PRC2 was assessed by analysing histone H3 lysine 27 methylation in human cell lines. The ability of compounds of the present invention to inhibit cancers was derived from their ability to modulate activity in human cancer cell lines bearing specific dependence to PRC2 activity to maintain cancerous growth.
ELISA (H3K27 Methylation) Assay
Representative compounds of the present invention were serially and separately diluted 3-fold in DMSO to obtain a total of eight or twelve concentrations. Then the compounds were added to G401 cell cultured in 384-well plate at 1:500 dilution to obtain the highest concentration of 20 μM. The cells were further cultured for 48 h before ELISA procedure.
Histone extraction: Cells, in 384-well plate, were washed with PBS (10×PBS buffer (80 g NaCl (Sigma, S3014), 2 g KCl (Sigma, 60128), 14.4 g Na2HPO4 (Sigma, S5136), 2.4 g KH2PO4 (Sigma, P9791) to 1 L water, pH to 7.4) and lysed with the addition of lysis buffer (0.4N HCl; 45 μL per well). The plate was gently agitated at 4° C. for 30 min. The cell lysate was neutralized with neutralization buffer (0.5 M sodium phosphate dibasic, pH 12.5, 1 mM DTT; 36 μL per well). The plate was agitated to ensure the lysates were well mixed prior to the ELISA protocol.
ELISA protocol: Cell lysates were transferred to the wells of a 384-well plate and the final volume was adjusted to 50 μL per well with PBS. The plate was sealed, centrifuged at 2,000 rpm for 2 min and incubated at 4° C. for about 16 h. The plate was washed with TBST buffer (1×TBS (10×TBS: 24.2 g Tris (Sigma, T6066), 80 g NaCl (Sigma, S3014) to 1 L of water and adjust pH to 7.6 with HCl) with 0.1% Tween-20). Blocking buffer (TBST, 5% BSA; 50 μL per well) was added and the plate was incubated for 1 h at rt. The blocking buffer was removed and primary antibody was added (30 μL per well). The following dilutions were performed with blocking buffer: for anti-H3K27me3 antibody (Cell Signaling Technology, #9733), dilution was 1:1000; for anti-H3K27me2 antibody (Cell Signaling Technology, #9288), dilution was 1:100; for anti-H3 antibody (Abcam, Cat #24834), dilution was 1:1000. The primary antibody was incubated in the plate at rt for 1 h. The wells were washed with TBST and incubated with secondary antibody for 1 h at rt. For secondary antibodies, the following dilutions were carried out with blocking buffer: anti-rabbit antibody (Jackson ImmunoResearch, #111-035-003), dilution was 1:2000; and anti-mouse antibody (Cell signaling technology, #7076), dilution was 1:1000. After 1 h of incubation at rt, the wells were washed with TBST. ECL substrate (Pierce, #34080) was added at 30 μL per well and the plates were centrifuged at 2,000 rpm for 2 min. The signal was read using a PerkinElmer Envision Reader. The H3K27 methylation readouts were normalized using H3 signal and then percentage inhibition was calculated against the samples treated with DMSO. The data were then fit to a dose response curve using the program Helios to get the IC50 values of the test compound.
On the technique in general: In an ELISA, binding on a coated surface is turned into a signal by an enzyme label.

Setting [2] is: read-out: (a) IC50, EED Alphascreen binding Qualified.

T1 sequence (O75530 whole entry): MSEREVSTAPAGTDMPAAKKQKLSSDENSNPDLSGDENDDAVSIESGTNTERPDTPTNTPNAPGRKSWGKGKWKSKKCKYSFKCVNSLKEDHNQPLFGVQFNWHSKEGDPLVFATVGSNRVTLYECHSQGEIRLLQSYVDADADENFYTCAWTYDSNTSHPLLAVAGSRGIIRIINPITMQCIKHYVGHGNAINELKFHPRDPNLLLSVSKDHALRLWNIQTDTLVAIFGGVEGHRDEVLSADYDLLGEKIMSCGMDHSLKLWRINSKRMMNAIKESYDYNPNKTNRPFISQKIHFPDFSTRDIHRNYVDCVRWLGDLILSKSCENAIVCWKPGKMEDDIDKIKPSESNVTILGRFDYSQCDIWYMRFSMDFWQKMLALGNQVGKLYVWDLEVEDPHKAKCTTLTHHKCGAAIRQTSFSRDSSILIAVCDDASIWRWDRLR

As for `COc1cccc(CNc2ccc(-c3ccc(CN(C)C)cc3)c3nncn23)c1` [Example 14, 8-(4-((dimethylamino)methyl)phenyl)-N-(3-methoxybenzyl)-[1,2,4] triazolo[4,3-a]pyridin-5-amine], the IC50 is 325 nM on EED (1-441)-His protein (setting [2]) and 280 nM in assay [1].
Turning to `CN(C)Cc1ccc(-c2ccc(NCc3ccccc3)n3cnnc23)cc1` [Example 17, N-benzyl-8-(4-((dimethylamino)methyl)phenyl)-[1,2,4]triazolo[4,3-a] pyridin-5-amine], the half-maximal inhibitory concentration (IC50) was 234 nM on EED (1-441)-His protein (setting [2]) and 249 nM in assay [1].
As to `COc1ccccc1CNc1ccc(-c2ccccc2)c2nncn12` [Example 23, N-(2-methoxybenzyl)-8-phenyl-[1,2,4]triazolo[4,3-a] pyridin-5-amine], the IC50 at EED (1-441)-His protein (setting [2]) worked out at 180 nM; in assay [1], 521 nM.
On the same counts, the results for `Cc1ccccc1CNc1ccc(-c2ccc(CN(C)C)cc2)c2nncn12` [Example 31, 8-(4-((dimethylamino)methyl)phenyl)-N-(2-methylbenzyl)-[1,2,4]triazolo[4,3-a]pyridin-5-amine] are 394 nM and 508 nM.
As for `CN(C)Cc1ccc(-c2ccc(NCc3cccc(F)c3)n3cnnc23)cc1` [Example 35, 8-(4-((dimethylamino)methyl)phenyl)-N-(3-fluorobenzyl)-[1,2,4] triazolo [4,3-a]pyridin-5-amine], the values for the IC50 (on EED (1-441)-His protein (setting [2]); in assay [1]) were 2570 nM and 3490 nM, respectively.
For the compound `CN(C)Cc1ccc(-c2ccc(NCc3ccccc3F)n3cnnc23)cc1` [Example 36, 8-(4-((dimethylamino)methyl)phenyl)-N-(2-fluorobenzyl)-[1,2,4] triazolo [4,3-a]pyridin-5-amine], the IC50 came out at 1010 nM at EED (1-441)-His protein (setting [2]) and 937 nM in assay [1].
As to `CN(C)Cc1ccc(-c2ccc(NCc3ccc(F)cc3)n3cnnc23)cc1` [Example 37, 8-(4-((dimethylamino)methyl)phenyl)-N-(4-fluorobenzyl)-[1,2,4]triazolo[4,3-a] pyridin-5-amine], the IC50 on EED (1-441)-His protein (setting [2]) turned out to be 1520 nM; in assay [1] it was 1800 nM.
For `COc1ccccc1CNc1ccc(-c2ccccc2C)c2nncn12` [Example 46, N-(2-methoxybenzyl)-8-(o-tolyl)-[1,2,4]triazolo[4,3-a] pyridin-5-amine], the values for the 50% inhibitory concentration (IC50) (at EED (1-441)-His protein (setting [2]); in assay [1]) were 160 nM and 529 nM, respectively.
Consider `CN(C)Cc1ccc(-c2ccc(NCc3cccnc3)n3cnnc23)cc1` [Example 48, 8-(4-((dimethylamino)methyl)phenyl)-N-(pyridin-3-ylmethyl)-[1,2,4]triazolo[4,3-a]pyridin-5-amine], for which the IC50 was 4230 nM at EED (1-441)-His protein (setting [2]) and 2280 nM in assay [1].
Regarding `COc1ccc(F)c(CNc2ccc(-c3ccc(CN(C)C)cc3)c3nncn23)c1` [Example 49, 8-(4-((dimethylamino)methyl)phenyl)-N-(2-fluoro-5-methoxybenzyl)-[1,2,4] triazolo[4,3-a]pyridin-5-amine], the IC50 at EED (1-441)-His protein (setting [2]) is 164 nM; in assay [1], 140 nM.
For `COc1cncc(-c2ccc(NCc3ccccc3OC)n3cnnc23)c1` [Example 51, N-(2-methoxybenzyl)-8-(5-methoxypyridin-3-yl)-[1,2,4] triazolo[4,3-a]pyridin-5-amine], the IC50 on EED (1-441)-His protein (setting [2]) stood at 127 nM; in assay [1], 159 nM.
Regarding `COc1ccccc1CNc1ccc(-c2ccc(CN3CCCC3=O)cc2)c2nncn12` [Example 55, 1-(4-(5-((2-methoxybenzyl)amino)-[1,2,4]triazolo[4,3-a]pyridin-8-yl)benzyl) pyrrolidin-2-one], the IC50 at EED (1-441)-His protein (setting [2]) stood at 15.1 nM; in assay [1] it was 44.1 nM.
In the same order, the values of `COc1ccccc1CNc1ccc(-c2cncnc2)c2nncn12` [Example 58, N-(2-methoxybenzyl)-8-(pyrimidin-5-yl)-[1,2,4] triazolo[4,3-a]pyridin-5-amine] are 59.8 nM and 66.3 nM.
`COc1cc(-c2ccc(NCc3ccccc3OC)n3cnnc23)ccn1` [Example 59, N-(2-methoxybenzyl)-8-(2-methoxypyridin-4-yl)-[1,2,4] triazolo[4,3-a]pyridin-5-amine]: the IC50 on EED (1-441)-His protein (setting [2]) was 31.6 nM; in assay [1], 168 nM.
Take `COc1ccccc1CNc1ccc(-c2ccc(CN3CCCC3)cc2)c2nncn12` [Example 60, N-(2-methoxybenzyl)-8-(4-(pyrrolidin-1-ylmethyl)phenyl)-[1,2,4]triazolo[4,3-a] pyridin-5-amine]: the concentration for half-maximal inhibition (IC50) at EED (1-441)-His protein (setting [2]) was 40.2 nM; in assay [1] it was 56.5 nM.
Consider `COc1ccccc1CNc1ccc(-c2ccc(N3CCOCC3)c(Cl)c2)c2nncn12` [Example 65, 8-(3-chloro-4-morpholinophenyl)-N-(2-methoxybenzyl)-[1,2,4] triazolo[4,3-a]pyridin-5-amine], for which the IC50 at EED (1-441)-His protein (setting [2]) stood at 1660 nM; in assay [1], 11000 nM.
On the same counts, the results for `COc1ccccc1CNc1ccc(-c2ccc(-c3nn[nH]n3)cc2)c2nncn12` [Example 74, 8-(4-(2H-tetrazol-5-yl)phenyl)-N-(2-methoxybenzyl)-[1,2,4]triazolo[4,3-a] pyridin-5-amine] are 320 nM and 4240 nM.
In the same order, the values of `COc1ccccc1CNc1ccc(-c2cnc(N3CCN(C)CC3)c(Cl)c2)c2nncn12` [Example 75, 8-(5-chloro-6-(4-methylpiperazin-1-yl)pyridin-3-yl)-N-(2-methoxybenzyl)-[1,2,4] triazolo[4,3-a]pyridin-5-amine] are 132 nM and 488 nM.
With `COc1cccc(F)c1CNc1ccc(-c2ccc(S(=O)(=O)N(C)C)cc2)c2nncn12` [Example 79, 4-(5-((2-fluoro-6-methoxybenzyl)amino)-[1,2,4]triazolo[4,3-a]pyridin-8-yl)-N,N-dimethylbenzene sulfonamide], the IC50 on EED (1-441)-His protein (setting [2]) was found to be 116 nM; in assay [1] it was 78.5 nM.
`COc1cc(F)cc(F)c1CNc1ccc(-c2cnc(OC3CC3)nc2C)c2nncn12` [Example 344, 8-(2-cyclopropoxy-4-methylpyrimidin-5-yl)-N-(2,4-difluoro-6-methoxybenzyl)-[1,2,4]triazolo[4,3-a]pyridin-5-amine]: the IC50 on EED (1-441)-His protein (EED-H3K27Me3 peptide competition, AlphaScreen, read-out: (a) IC50 EED Alphascreen binding Qualified) came to 25.5 nM.

The term IC50 denotes the concentration that gives 50% inhibition.
